# Test results taken from patent US20250051293A1, “NOVEL OXADIAZOLE DERIVATIVE AND USE THEREOF” (CELROS BIOTECH, priority 2021, published 2025).
# How the values were obtained:
# BV2 cells = experiment: Microglia (BV2) migration, transwell; assay type: cell-based, mouse; conditions: LPS 1 μg/ml, 24 hours, compound 10 μM
# Experimental: To determine the migration level of BV2 cells, 8 μm-sized transwells (35224, SPL) were used. 1×10^5 BV2 cells were seeded into the insertion transwells, and the lower wells were treated with the compound of Example 2 or Apocynin (NOX inhibitor) along with lipopolysaccharide (LPS, 1 μg/ml) as stimulus. After 24 hours of incubation, BV2 cells that migrated to the bottom of the insertion transwells were stained with crystal violet.
# [1] = system: human glioblast cell line U87; experiment: Glioblastoma cell growth inhibition, U87; assay type: cell-based; conditions: 2 μM, starting 4 days after treatment
# Experimental: Cell growth experiments were performed to determine the effect of the compounds according to The present disclosure on the growth of brain tumor glioblast cells. Specifically, the rodent brain tumor glioblast cell line 7080 and the human glioblast cell line U87 were treated with the compound of Example 2 according to The present disclosure to determine the cell growth inhibitory effects, and the results are shown in FIG. 18.
# Tg−APP/PS1 animal models = experiment: Tg-APPswe/PS1dE9 Alzheimer's animal model; assay type: in vivo, mice
# Experimental: The Tg−APP/PS1 animal models were used to determine the effect of compounds of Examples according to The present disclosure on Alzheimer's disease. This animal models show amyloid plaque deposition as early as 6.5 months and severe cognitive impairment at 6 to 8 months. The Tg−APP/PS1 animal models were administered with vehicle or the Example compound (i.e., Example 2 was used) at 30 mg/kg or 10 mg/kg every other day from 6.5 to 8 months. All behavioral testing occurred between 7.5 and 8 months, and brain tissues for biopsy were obtained by perfusion after behavioral testing. To confirm amyloid beta plaques, the brain tissues obtained in the above part (1)_1) were incubated in 1% Thioflavin-S solution for 8 to 20 minutes and washed with ethanol and distilled water. The stained tissues were sectioned and the number of plaques or stained areas were quantified. To confirm the changes in astrocytes and microglia by administration of oxadiazole derivative compounds, immunostaining was performed using GFAP antibody, a marker for astrocytes, and Iba1 antibody, a marker for microglia. The novel object recognition (NOR) and novel location recognition (NLR) tests are behavioral assessments that evaluate memory based on the disparity in search time between a novel object or an object relocated to a new position compared to a familiar object. Each experimental animal was placed in a square box with two identical objects and allowed to familiarize for 10 minutes (familiarization #1). Ten minutes after the first familiarization was completed, the objects used in the first familiarization were returned to their original position and subjected to a second familiarization (familiarization #2). After 2 hours, only one of the objects used in familiarization was replaced with a novel object and placed in the same position and the exploration time of the familiar and novel objects (2 h NOR) was determined. After 15 minutes, the familiar object was repositioned, and the exploration time of both objects was checked (NLR). After 22 hours (24 hours after familiarization), the novel object and the familiar object were placed and the exploration time was determined (24 h NOR). water maze test is frequently used to assess memory functions such as memory formation, consolidation, and retrieval effects by assessing the time it takes for an experimental animal to find a platform beneath the water surface, relying on environmental cues. Therefore, the treatment effect on Alzheimer's disease was confirmed using the model used in the water maze test above. The passive avoidance test is a fear-motivated test mainly used to evaluate short-term or long-term memory in experimental animals. The passive avoidance test evaluates fear memory by utilizing the innate tendency of experimental animals to prefer dark areas and avoid bright areas, delivering an electric shock to the paw upon entry into a dark area, and measuring the time it takes for the animal to re-enter the dark area upon re-exposure to the same environment.
# [2] = parietal cortex, piriform cortex, and hippocampus
smiles,measurement,setting,value
"O=C(Nc1nnc(-c2ccccc2)o1)c1ccc(F)c(C(F)(F)F)c1 [Example 2, 4-fluoro-N-(5-phenyl-1,3,4-oxadiazol-2-yl)-3-(trifluoromethyl)benzamide]",LPS-induced increase in number of migrated BV2 cells,BV2 cells,offset
same,cell growth of human glioblast cell line U87,[1],cell growth inhibition was observed
same,exploration time for novel objects than familiar objects (2 h NOR),Tg−APP/PS1 animal models; 30 mg/kg,significantly increase
same,exploration time for novel objects than familiar objects (24 h NOR),Tg−APP/PS1 animal models; 30 mg/kg,remarkable increase
same,exploration time for objects located in a novel location (NLR),Tg−APP/PS1 animal models; 30 mg/kg,significant increase
same,amyloid plaque deposition (Thioflavin-S staining),Tg−APP/PS1 animal models; 30 mg/kg or 10 mg/kg every other day from 6.5 to 8 months,highly significant ameliorative effect
same,"water maze test, time required to locate platform",Tg−APP/PS1 animal models; five consecutive days of training,memory acquisition ability equivalent to wild-type mice
same,activation of astrocytes (GFAP immunostaining),Tg−APP/PS1 animal models; [2],effectively reduced
same,activation of microglia (Iba1 immunostaining),Tg−APP/PS1 animal models; [2],effectively reduced
same,"passive avoidance test, time to enter the dark area","Tg−APP/PS1 animal models; post-shock, 24 to 120 hours",fear memory retention comparable to that of wild-type animals
